PubChem BioAssay (NCI)
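Cells were grown in 96-well plates and exposed to each compound for 48 hours at five concentrations; endpoints were interpolated linearly between bracketing concentrations, or set to the highest concentration if not reached. GI50 is the concentration that inhibits growth by half. At the TGI there is no net growth.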

Tests used:
Test in all cases: NCI anticancer screen, dose series, 48 h
OVCAR-3 ovarian = tested on: OVCAR-3 ovarian
SK-MEL-5 melanoma = tested on: SK-MEL-5 melanoma
ACHN renal = tested on: ACHN renal
SNB-75 CNS = tested on: SNB-75 CNS
KM12 colon = tested on: KM12 colon
LOX IMVI melanoma = tested on: LOX IMVI melanoma
SK-MEL-28 melanoma = tested on: SK-MEL-28 melanoma
BT-549 breast = tested on: BT-549 breast
MALME-3M melanoma = tested on: MALME-3M melanoma
OVCAR-8 ovarian = tested on: OVCAR-8 ovarian

COc1ccc(CN2C3CC2CN(c2ccc(-c4cc(OCC(C)(C)O)cn5ncc(C#N)c45)cn2)C3)cn1
GI50 (OVCAR-3 ovarian): > 100 µM | TGI (OVCAR-3 ovarian): > 100 µM | GI50 (SK-MEL-5 melanoma): > 100 µM | TGI (SK-MEL-5 melanoma): > 100 µM | GI50 (ACHN renal): 6.86 µM | TGI (ACHN renal): > 100 µM | GI50 (SNB-75 CNS): 1320 nM | TGI (SNB-75 CNS): 4.81 µM | GI50 (KM12 colon): > 100 µM | TGI (KM12 colon): > 100 µM | GI50 (LOX IMVI melanoma): 15.1 µM | TGI (LOX IMVI melanoma): > 100 µM | GI50 (SK-MEL-28 melanoma): > 100 µM | TGI (SK-MEL-28 melanoma): > 100 µM | GI50 (BT-549 breast): 3.34 µM | TGI (BT-549 breast): > 100 µM | GI50 (MALME-3M melanoma): > 100 µM | TGI (MALME-3M melanoma): > 100 µM | GI50 (OVCAR-8 ovarian): 13.2 µM | TGI (OVCAR-8 ovarian): > 100 µM

Cc1ccc(C2=CC(=O)/C(=C\C(=O)c3ccc(Cl)cc3)O2)cc1
TGI (OVCAR-3 ovarian): 18.4 µM | TGI (SK-MEL-5 melanoma): 33.2 µM | TGI (ACHN renal): 17.3 µM | TGI (SNB-75 CNS): 74.5 µM | TGI (KM12 colon): 42.9 µM | TGI (LOX IMVI melanoma): 3.31 µM | TGI (SK-MEL-28 melanoma): 33.1 µM | TGI (BT-549 breast): 5.54 µM | TGI (MALME-3M melanoma): 32.7 µM | TGI (OVCAR-8 ovarian): 14.6 µM

COc1nc(C#CC(C)(C)C)nc(OC)n1
TGI (OVCAR-3 ovarian): 77.3 µM | TGI (SK-MEL-5 melanoma): 39 µM | TGI (ACHN renal): > 100 µM | TGI (SNB-75 CNS): > 100 µM | TGI (KM12 colon): 40 µM | TGI (LOX IMVI melanoma): 61.4 µM | TGI (SK-MEL-28 melanoma): > 100 µM | TGI (BT-549 breast): > 100 µM | TGI (MALME-3M melanoma): 46.9 µM | TGI (OVCAR-8 ovarian): 37.6 µM

CC(C)OC(=O)OCSc1ccccc1N=Cc1cccc([N+](=O)[O-])c1
TGI (OVCAR-3 ovarian): > 10 µM | TGI (SK-MEL-5 melanoma): > 10 µM | TGI (ACHN renal): > 10 µM | TGI (SNB-75 CNS): > 10 µM | TGI (KM12 colon): > 10 µM | TGI (LOX IMVI melanoma): > 10 µM | TGI (SK-MEL-28 melanoma): > 10 µM | TGI (BT-549 breast): > 10 µM | TGI (MALME-3M melanoma): > 10 µM | TGI (OVCAR-8 ovarian): > 10 µM
